Measured values published in patent US12042545B2, “Encapsulated extracellular vesicles” (THE BOARD OF TRUSTEES OF THE UNIVERSITY OF ILLINOIS, priority 2020, dated 2024).
Ends that are not written are not given here.

Assay: Bulk transport experiments: release from alginate hydrogels
Details: not given

Compound | effect of treatment on EV release from hydrogels
NC1=N[C@H](O)[C@H]2[C@H]3O[C@]4(O)O[C@@H]([C@@H](O)[C@@]2(N1)[C@@H]4O)[C@]3(O)CO [tetrodotoxin] | significantly increased EV release in soft and stiff stress relaxing hydrogels

Same assay, conditions: EVs encapsulated in alginate hydrogels, agent added or tethered

Compound | effect of treatment on EV release from hydrogels
O=C(O)c1cc([N+](=O)[O-])ccc1NCCCc1ccccc1 [NPPB] | did not alter EV release from the hydrogels
C[C@@H](N)[C@H]1CC[C@H](C(=O)Nc2ccncc2)CC1 [Y27632] | did not affect the EV release
GsMTx4: a selective inhibition of cation-permeable mechanosensitive channels (GCLEFWWKCNPNDDKCCRPKLKCSKLFKLCNFSF; ends and bridges not checked; cysteine pairing not given here; UniProt Q7YT39 47-80, looked up) | increased EV release in stiff stress relaxing hydrogels
O=C(O)CN(CCOCCOCCN(CC(=O)O)CC(=O)O)CC(=O)O [EGTA] | did not affect the release
Cc1ccc2c(c1)C(=O)C1(O)CCN(c3ccccc3)C1=N2 (stereo not drawn) [blebbistatin] | did not affect the EV release
C[C@H](CCC(=O)O)C[C@H](C)C[C@H](C)C(=O)/C=C(\O)[C@H](C)C[C@H](C)C/C=C/[C@@H](C)[C@@H](O)[C@@H](C)[C@@H](O)C[C@@H]1CC[C@@](C)([C@H]2CC[C@@](C)([C@@H](C)O)O2)O1 [ionomycin] | did not affect the release
CCN(c1nc(N)c(C(=O)NC(=N)N)nc1Cl)C(C)C [EIPA] | did not alter EV release from the hydrogels

Same assay, conditions: added to EV preparations during lyophilization

Compound | release behavior of lyophilized EVs with cryoprotectant
OC[C@H]1O[C@H](O[C@H]2O[C@H](CO)[C@@H](O)[C@H](O)[C@H]2O)[C@H](O)[C@@H](O)[C@@H]1O [trehalose] | recovered release behavior
